Test results taken from publication PMC12010006, “Subnanomolar MAS-related G protein-coupled receptor-X2/B2 antagonists with efficacy in human mast cells and disease models” (Signal Transduction and Targeted Therapy, 2025).

Experiments:
mouse MRGPRB2 = molecular target: T1, mouse MRGPRB2 (Mus musculus, UniProt Q3KNA1); test: Ca2+ assay, 1321N1 astrocytoma cells expressing MRGPRB2; type: cell-based
T1 construct: expressed in transfected cells; host or cells: 1321N1 astrocytoma cells; plasmid pLVX-IRES-MRGPRB2-mCherry (Addgene #213961)
T1 sequence (Q3KNA1 1-338): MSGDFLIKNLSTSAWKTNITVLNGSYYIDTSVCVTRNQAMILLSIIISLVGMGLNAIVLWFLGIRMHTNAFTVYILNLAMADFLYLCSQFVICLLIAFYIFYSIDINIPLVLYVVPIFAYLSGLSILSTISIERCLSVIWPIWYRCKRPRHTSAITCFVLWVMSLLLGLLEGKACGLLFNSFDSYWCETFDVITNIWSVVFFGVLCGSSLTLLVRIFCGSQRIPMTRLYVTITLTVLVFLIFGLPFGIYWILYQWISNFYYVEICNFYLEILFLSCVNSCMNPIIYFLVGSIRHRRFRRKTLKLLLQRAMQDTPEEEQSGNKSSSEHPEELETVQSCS
Method: Therefore, we investigated whether the new MRGPRX2 antagonists could also block MRGPRB2. To this end, we used recombinant 1321N1 astrocytoma cells that stably expressed MRGPRB2, employing Ca^2+ assays, and CST-14 as MRGPRX2/MRGPRB2 agonist (EC80 value of 2000 nM).[31]
For MRGPRB2, the pKi values of the compounds were determined using 1321N1 astrocytoma cells recombinantly expressing MRGPRB2 using Ca^2+ assays versus the MRGPRX2/MRGPRB2 agonist CST-14 (EC80 value, 2000 nM). For MRGPRX2, pKi values were determined using Ca^2+ assays performed in LN229 cells recombinantly overexpressing MRGPRX2 versus the agonist CST-14 (EC80 value, 800 nM). b Concentration-response curve of PSB-172656 in Ca^2+ assays using 1321N1 astrocytoma cells expressing MRGPRB2 versus CST-14 (EC80 value, 2000 nM), Ki value 0.302 ± 0.039 nM. Data are generated from 3 biological replicates, determined in duplicates. c A representative trace showing the effect of C48/80 (30 µg/mL) on a mouse tracheal ring in isometric force measurements using a wire-myograph system. d The contraction response of mouse trachea to C48/80 (30 µg/mL) was normalized to the contraction caused by methacholine (10 µM), a muscarinic receptors agonist. […]

LAD2 cells = test: MTT assay, LAD2 cells; type: cell-based, human; conditions: 24 h; concentrations up to 6-fold higher than IC50 (3, 10, 30 nM)
Method: Fig. 6 PSB-172656 inhibits MRGPRX2-mediated mast cell degranulation. a LAD2 cells were incubated with buffer (control) or various concentrations of MRGPRX2 antagonist PSB-172656, subsequently exposed to substance P (SP, 0.3 µM), and β-hexosaminidase release was measured. […] Data are expressed as means ± SEM of 3 biological replicates. Statistical significance was determined by one-way ANOVA (Tukey’s multiple comparisons), compared to the effect of SP in the absence of PSB-172656 (P-value*** < 0.001). b Potential cytotoxicity of PSB-172656 was determined in 3-[4,5-dimethylthiazol-2-yl]-2,5-diphenyl tetrazolium bromide (MTT) assays performed on LAD2 cells. Cells were treated with different concentrations of PSB-172656 for 24 h at 37 °C, and the optic density value was determined at 570 nm (the viability of untreated cells corresponds to 100% cell viability). […] Mean fluorescence intensity (MFI) levels of e CD107a and f CD63 are depicted. […] Degranulation is characterized by the release of β-hexosaminidase, expressed as a percentage of the total content. h Human skin MCs were incubated with different concentrations of PSB-172656 for 30 min followed by stimulation with CST-14 (1 µM). Statistical significance was calculated by one-way ANOVA (Tukey’s multiple comparisons), compared to agonist without PSB-172656 (P-value* < 0.05, […], and P-value**** < 0.001) […]

In the case of CCc1c(C(C)C)[nH]c2nc3cc(F)c(F)cc3n2c1=O [Compound 24, 3-ethyl-7,8-difluoro-2-isopropylbenzo[4,5]imidazo [1,2-a] pyrimidin-4(1H)-one], the “fold less potent at MRGPRB2 than at human MRGPRX2” value (mouse MRGPRB2; Ca2+ assays) is reported as 3 fold, the Ki (mouse MRGPRB2; versus CST-14 (EC80 2000 nM)) is reported as 0.302 nM and the “toxicity in LAD2 cells (MTT)” value (LAD2 cells) is reported as “did not exhibit toxicity”.
